Here are results for 66 compounds from a melting point compilation (Tetko et al.; mined from patent text by program, amines drawn as free bases though some values may be those of a salt).

By melting point is commonly meant the temperature, or range, at which the solid turns liquid.

Each structure is given as a SMILES string. Where only a bound is given, the exact number is not on record here.

`CCN(CC)C(=O)Oc1cc(C(C)C)ccc1C1(O)C(=O)c2ccccc2C1=O`: the melting point fell in the range of 103 to 106 °C.
Under `CCOC(=O)CCCCC(NS(=O)(=O)c1ccc(C)cc1)c1ccc2ccccc2c1` (stereo unspecified) stands 87 to 91 °C; under `CCOC(=NC(=O)c1cccc(C)c1)N1Cc2ccccc2-c2ccccc2C1`, 102 to 105 °C.
As to `O=C1C[N+]([O-])=C(c2ccccc2F)c2cc(Cl)ccc2N1CC(O)CO` (stereo unspecified), the melting point was 165 to 166 °C.
Regarding `COc1cc(Br)c(O)c(/C=C/C(=O)/C=C/c2cc(OC)cc(Br)c2O)c1`, the melting point was 155 to 157 °C.
For the compound `COc1cc2cc(-c3ccc(=O)[nH]n3)sc2cc1OC`, the melting point is greater than 300 °C.
As for `O=C(O)c1cnn(-c2ccc(F)cc2)c1`, the melting point was 244 to 247 °C.
Compound `COc1ccc(N)cc1NCC(N)=O` yielded a melting point of 144 °C.
In turn, `Fc1ccc(-c2n[nH]cc2-c2ccnc(NCc3ccccc3)n2)cc1` had a melting point of 216 to 217 °C.
Under `Cc1nc2ccccc2c(=O)n1CCCl` stands 114 to 116 °C; under `O=C(O)/C=C(/C#Cc1ccccc1)c1ccccc1`, 124 to 126 °C; under `COC(=O)c1oc2ccc(Cl)cc2c1-c1ccccc1C`, 212 to 214 °C.
`CN(C)c1ccc(Pc2ccc(N(C)C)cc2)cc1` gave a melting point of 80 to 90 °C.
To `COC(=O)c1sc(S(C)(=O)=O)cc1OCc1ccccc1` belongs 125 to 126 °C; to `Sc1nc2ncccc2[nH]1`, greater than 250 °C; to `Cc1ccc(-c2cc(-c3ccccc3)cc3c2OC(CN)C3)cc1` (stereo unspecified), 159 to 162 °C.
As to `CC(C)(C)c1csc(-c2cc3cc(CC(C(=O)O)C(=O)O)ccc3o2)n1`, the melting point is greater than 320 °C.
For `COc1cc2c(cc1OC)C(c1ccc(SC(F)(F)F)cc1)CNCC2` (stereo unspecified), the melting point stood at 95 °C.
Under `CN1CCN(c2cc3c(cc2F)c(=O)c(C(=O)O)cn3CCF)CC1` stands 256 to 258 °C; under `Nc1cccc(-c2ccc(CCCN3CCN(CCc4ccccc4)CC3)cc2)n1`, 125 to 140 °C.
Under `Cc1cc2c(=O)[nH][nH]c(=O)c2n1CC(C)C` stands 278 to 282 °C.
To `NS(=O)(=O)c1ccc(-c2cnn(C=C(F)C(F)F)c(=O)c2-c2ccc(F)cc2)cc1` belongs 190 to 193 °C.
Compound `COC(=O)CCC(=NOCc1ccc(OCc2nc(-c3ccccc3)oc2C)c(OC)c1)c1ccccc1` displayed a melting point of 112 to 114 °C.
As for `O=C(Nc1nc(-c2ccco2)c(-c2ccncc2)s1)c1cc[nH]c(=O)c1`, the melting point fell in the range of 277 to 281 °C.
`CC(=O)Nc1cnc(-c2cc(Cl)ccc2Cl)c(N)n1` registered a melting point of 152 to 154 °C.
Compound `CN(C)C(=O)OC1CCN(c2ncc(-c3ccccc3Cl)cn2)CC1` yielded a melting point of 86 to 88 °C.
Compound `Cc1cccc(NCC2=NCCN2C(=O)Nc2ccc(Cl)cc2)c1C` had a melting point of 153 to 155 °C.
In the case of `COc1cc2c(cc1C#Cc1ccccc1)NC(=O)CC(c1cccc(C#N)c1)=N2`, the melting point is greater than 250 °C.
`CCOC(=O)[C@H](Cc1ccc(NC(=O)c2c(Cl)cncc2Cl)cc1)NC1=CC(=O)C12CCCCC2` yielded a melting point of 194 °C.
As for `CCOc1nn(C(=O)NS(=O)(=O)c2c(C)cccc2OC(C)C)c(=O)n1C`, the melting point worked out at 155 °C.
Compound `COC(=O)c1ccc(OC)nc1OC` showed a melting point of 52 to 54 °C.
`CCCCc1ncc(/C=C(/CO)Cc2cccs2)n1Cc1ccccc1Cl` gave a melting point of 114 to 115 °C.
As for `CC(c1ccccn1)C(O)(Cn1cncn1)c1ccc(F)cc1F` (stereo unspecified), the melting point lay within 146 to 148 °C.
`COc1ccc(CN2Cc3cncn3C(c3ccc(C#N)cc3)C2=O)cc1` (stereo unspecified) came in with a melting point of 155 to 157 °C.
With `O=C(Nc1ccccc1S(=O)(=O)c1ccccc1)N[C@@H](Cc1ccc(OC(=O)c2c(Cl)cncc2Cl)cc1)C(=O)O`, the melting point was determined as 186 °C.
Compound `O=C(O)C1CCc2c(oc3ccc(Cl)cc23)C1` (stereo unspecified) showed a melting point of 194 to 198 °C.
For `CNC(=O)NCCSCc1[nH]cnc1C`, the melting point lay in the range of 158 to 159 °C.
As for `Cc1cc(CNC(=O)C(=O)NCCc2ccccn2)c(C)o1`, the melting point was in the range of 112 to 115 °C.
The compound `O=c1nc(Cl)cnn1-c1cc(Cl)cc(Cl)c1` returned a melting point of 148 to 149 °C.
To `CCOC(=O)c1cc2c(=O)ccoc2nc1C(=O)OCC` belongs 71 to 72 °C; to `O=C(O)C1CCCCN1CC=CP(=O)(O)O` (stereo unspecified), 163 to 165 °C.
Compound `COc1ccc2c(=O)n3c(cc2c1)S(=O)(=O)CCC3` displayed a melting point of 256 to 257 °C.
In turn, `CCC(C#N)(C(=O)N1CCOCC1)c1ccccc1` (stereo unspecified) yielded a melting point of 88 to 90 °C.
The compound `CCOc1ccccc1N1C(=O)CC(N(O)c2ccccc2)C1=O` (stereo unspecified) displayed a melting point of 174 to 175 °C.
`CCS(=O)c1ccc(Oc2ccc(Cl)c(Cl)c2)nc1C#N` (stereo unspecified) displayed a melting point of 138 to 144 °C.
`O=C(O)c1ccc(-c2ccc(C(=O)O)cn2)nc1` returned a melting point greater than 400 °C.
To `CN1C(=O)Cn2c(CCl)nnc2-c2cc(Cl)ccc21` belongs 193 to 194 °C.
For the compound `COCC1CN(c2ccc(C3CCN(C(=O)c4ccc(C(F)(F)F)cc4)CC3)cc2)C(=O)O1` (racemic), the melting point fell in the range of 164 to 166 °C.
In turn, `CCCc1cc(=O)oc2cc(O)c3c(c12)OC(C)(C)C=C3` came in with a melting point of 190 to 192 °C.
Under `O=c1oc(-c2cccc(Oc3ccccc3)c2)cc(O)c1SCCc1ccccc1` stands 114 to 115 °C.
As for `O=C1Nc2ccncc2N2CCNCC12` (stereo unspecified), the melting point was 303 to 306 °C.
Take `CCOc1nn(-c2ccc(C(F)(F)F)cn2)cc1CCCOc1c(CC(=O)O)cccc1OC`: the melting point lay in the range of 122 to 123 °C.
Regarding `COc1ccc2nc3snc(C(=O)c4ncc(C)c(OC)c4C)n3c2c1`, the melting point lay within 196 to 197 °C.
As for `CC(C)(C)c1nc(C(=O)c2ccccc2)nc(C(C)(C)C)c1O`, the melting point was in the range of 129 to 131 °C.
`O=C(O)c1ccc(OCCCCl)cn1`: the melting point lay within 120 to 121 °C.
`COc1ccc([C@H](Sc2cc(Cc3ccccc3)ccc2N)[C@@H](O)C(=O)O)cc1` yielded a melting point of 155 to 158 °C.
Under `Cc1oc(-c2ccccc2)nc1CCOc1ccc(NC(=O)C(=O)O)cc1` stands 196 to 198 °C; under `O=C(O)c1ccc(-c2nc(-c3ccc(C(F)(F)F)cc3)cs2)cc1`, 164 to 165 °C; under `CCOC(=O)c1ccc(-c2nc3ccc(C)cn3c2CO)cc1`, 157 to 159 °C.
With `CCCOc1cc2ccccc2c2c(=O)c(-c3ccoc3)c[nH]c12`, the melting point was 252 to 254 °C.
Turning to `CCOC(=O)c1nc(C2CCCCC2)n(-c2cccc(Cl)c2F)c1Br`, the melting point was 150 to 152 °C.
Consider `COc1ccc(C2=Nc3cccnc3Nc3ccccc32)cc1`, for which the melting point was in the range of 198 to 200 °C.
Consider `O=C(NC(=O)c1c(F)cccc1F)Nc1cc(C(F)(F)F)c(Cl)cc1Br`, for which the melting point was 196 °C.
For `Cc1nn2c(c1C(N)=O)NCC=C2c1cc(Cl)ccc1Cl`, the melting point lay within 93 to 96 °C.
As for `O=C1Nc2cccnc2N(C(=O)N2CCCCC2CCCCN2CCCCC2)c2ccccc21` (stereo unspecified), the melting point was in the range of 199 to 201 °C.
`Cc1cccc(NC(=O)NCC(=O)N(CC(=O)N(C)c2ccccc2)c2ccccc2C)c1` registered a melting point of 193 °C.
